Source: patent US20240209053A1 (Protagonist Therapeutics, Inc., priority 2021, published 2024)
Numbered stars: 1 amine (or outer) side, 2 acyl side, 3 side chain; on linkers, the order of the positions; unused ones are H or OH. Bridge positions count the residues as written; N and C are the ends. Square brackets hold non-standard residues; d marks the D form. Side chains are listed from the residue outwards. Peptide text beside a SMILES is read from it. * marks the point of attachment. Dip = N[C@H](C(=O)O)C(c1ccccc1)c1ccccc1; Hag = O=C([C@H](CCC=[*:3])N[*:1])[*:2]; Palmitoyl = CCCCCCCCCCCCCCCC(=O)*; tBuAla = CC(C)(C)C[C@H](N)C(=O)O; β3hF = N[C@H](CC(=O)O)Cc1ccccc1; Isovaleryl = CC(C)CC(=O)*; Ahx = NCCCCCC(=O)O

Key:
[1] = biological target: T1, ferroportin (Homo sapiens, UniProt Q9NP59); assay: T47D cell-based ferroportin internalization assay in presence of 0.5% mouse serum albumin (MSA); conditions: T47D cells
T1 sequence (Q9NP59 1-571): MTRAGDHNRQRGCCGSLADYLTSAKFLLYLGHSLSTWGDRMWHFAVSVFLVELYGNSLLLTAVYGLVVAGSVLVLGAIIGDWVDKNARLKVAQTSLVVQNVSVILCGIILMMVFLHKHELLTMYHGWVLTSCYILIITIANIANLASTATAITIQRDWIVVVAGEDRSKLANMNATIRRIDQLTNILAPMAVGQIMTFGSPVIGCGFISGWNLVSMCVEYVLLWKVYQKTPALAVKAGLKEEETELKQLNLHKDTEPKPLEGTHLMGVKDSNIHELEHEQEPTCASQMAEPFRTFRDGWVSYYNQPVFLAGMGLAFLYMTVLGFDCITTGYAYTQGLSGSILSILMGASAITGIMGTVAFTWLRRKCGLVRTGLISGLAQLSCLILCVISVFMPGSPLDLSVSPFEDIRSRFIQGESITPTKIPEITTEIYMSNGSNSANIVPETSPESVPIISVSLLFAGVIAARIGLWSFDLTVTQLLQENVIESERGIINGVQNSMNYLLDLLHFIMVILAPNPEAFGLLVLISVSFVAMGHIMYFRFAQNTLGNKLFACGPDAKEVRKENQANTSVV
Procedure: The potency of the peptides in causing ferroportin internalization was evaluated in a T47D cell-based assay. […] In this internalization assay, the potency of the test peptides was evaluated in presence of serum albumin which is the main protein component in the blood. T47D cells were maintained in RPMI media (containing required amount of fetal bovine serum) and regularly sub-cultured. In preparation for the assay, the cells were seeded in 96-well plates at a density of 80-100 k cells per well in 100 ul volume and allowed to rest overnight. On the next day, test peptides were first prepared in dilution series (10-point series, starting concentration of ˜5 μM, typically 3-4×fold dilution steps), all with 0.5% mouse serum albumin (MSA purified from mouse serum; Sigma, A3139). The test peptide dilution series were allowed to incubate at room temperature for 30 min. Then the media was aspirated from the 96-well cell plate and test peptide dilution series were added. After 1 hr incubation, the media with test peptides was aspirated out and AF647-conjugated detection peptide was added at fixed concentration of 200 nM. The AF647-conjugated detection peptide was previously verified to bind to ferroportin and cause its internalization. The cells were washed again after a 2 hr incubation in preparation for flow cytometry analysis. The Median Fluorescence Intensity (MFI) of the AF647-positive population was measured (after removing dead cells and non-singlets from the analysis). The MFI values were used to generate a dose-response curve and obtain IC50 potencies for the test peptides. The IC50 potencies were calculated by using 4-parameter non-linear fitting function in Graphpad Prism (Table 6A).

[2] = biological target: T2, human ferroportin (SLC40A1) (Homo sapiens, UniProt Q9NP59); assay: FPN activity assay: internalization/degradation of ferroportin-GFP in stably transfected HEK293 cells (decrease in GFP fluorescence); format: cell-based; conditions: compound incubated at least 18 hours
T2 sequence (Q9NP59 1-571): T1 sequence (Q9NP59 1-571)
Procedure, shortened: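 HEK293 cells stably expressing human ferroportin C-terminally fused to GFP were exposed to peptides for at least 18 h, at most 24 h. Internalization/degradation read as loss of GFP fluorescence; EC50 derived. Retro-inverse mini-hepcidin peptides used as control standards.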

| IC50 [1] | IC50 [2] | Compound |
| --- | --- | --- |
| 10 to 100 nM | 10 to 100 nM | CCCCCCCCCCCCCCCC(=O)NCCCCCC(=O)NCCCC[C@H](NC(=O)C[C@H](Cc1ccccc1)NC(=O)[C@H]1CCC=CCC[C@H](NC(=O)CC(C)C)C(=O)N[C@@H]([C@@H](C)O)C(=O)N[C@@H](Cc2c[nH]cn2)C(=O)N[C@@H](C(c2ccccc2)c2ccccc2)C(=O)N2CCC[C@H]2C(=O)N[C@@H](C)C(=O)N[C@@H]([C@@H](C)CC)C(=O)N1)C(=O)N[C@H](CCCCN)C(N)=O [Compd 76] |
| 100 to 500 nM | 10 to 100 nM | CCCCCCCCCCCCCCCC(=O)NCCCCCC(=O)NCCCC[C@H](NC(=O)C[C@H](Cc1ccccc1)NC(=O)[C@@H]1CCC=CCC[C@@H](NC(=O)CC(C)C)C(=O)N[C@@H]([C@@H](C)O)C(=O)N[C@@H](Cc2c[nH]cn2)C(=O)N[C@@H](C(c2ccccc2)c2ccccc2)C(=O)N2CCC[C@H]2C(=O)N[C@@H](C)C(=O)N[C@@H]([C@@H](C)CC)C(=O)N1)C(=O)N[C@H](CCCCN)C(N)=O [Compd 68] |
| 100 to 500 nM | 100 to 500 nM | CCCCCCCCCCCCCCCC(=O)NCCCCCC(=O)NCCCC[C@@H]1NC(=O)[C@H](C)NC(=O)[C@@H]2CCCN2C(=O)[C@H](C(c2ccccc2)c2ccccc2)NC(=O)[C@H](Cc2c[nH]cn2)NC(=O)[C@H]([C@@H](C)O)NC(=O)[C@@H](NC(=O)CC(C)C)CCC=CCC[C@@H](C(=O)N[C@H](CC(=O)N[C@H](CCCCN)C(N)=O)Cc2ccccc2)NC1=O (single isomer, unassigned) [Compd 37] |
| 1 to 10 nM | 10 to 100 nM | CCCCCCCCCCCCCCCC(=O)NCCCCCC(=O)NCCCC[C@@H]1NC(=O)[C@@H]2CCCN2C(=O)[C@H](C(c2ccccc2)c2ccccc2)NC(=O)[C@H](Cc2c[nH]cn2)NC(=O)[C@H]([C@@H](C)O)NC(=O)[C@@H](NC(=O)CC(C)C)CCC=CCC[C@@H](C(=O)N[C@H](CC(=O)N[C@H](CCCCN)C(N)=O)Cc2ccccc2)NC(=O)[C@H]([C@@H](C)CC)NC1=O [Compd 36] |
| 1 to 10 nM | 1 to 10 nM | CCCCCCCCCCCCCCCC(=O)NCCCCCC(=O)NCCCC[C@@H]1NC(=O)[C@@H]2CCCN2C(=O)[C@H](C(c2ccccc2)c2ccccc2)NC(=O)[C@H](Cc2c[nH]cn2)NC(=O)[C@H]([C@@H](C)O)NC(=O)[C@@H](NC(=O)CC(C)C)CCCC=CCCC[C@@H](C(=O)N[C@H](CC(=O)N[C@H](CCCCN)C(N)=O)Cc2ccccc2)NC(=O)[C@H]([C@@H](C)CC)NC1=O [Compd 33] |
| 100 to 500 nM | 100 to 500 nM | CCCCCCCCCCCCCCCC(=O)NCCCCCC(=O)NCCCC[C@H](NC(=O)C[C@H](Cc1ccccc1)NC(=O)[C@@H]1CCC=CCC[C@H](NC(=O)CC(C)C)C(=O)N[C@@H](C)C(=O)N[C@@H](Cc2c[nH]cn2)C(=O)N[C@@H](C(c2ccccc2)c2ccccc2)C(=O)N2CCC[C@H]2C(=O)N[C@@H](C)C(=O)N[C@@H]([C@@H](C)CC)C(=O)N1)C(=O)N[C@H](CCCCN)C(N)=O [Compd 41] (Isovaleryl-[Hag]AH[Dip]PAI[Hag][β3hF]K([Ahx-Palmitoyl])[dK]-NH2; staple 1-8) |

More lines, now with the values behind:

| Compound | IC50 [1] | IC50 [2] |
| --- | --- | --- |
| CCCCCCCCCCCCCCCC(=O)NCCCCCC(=O)NCCCC[C@H](NC(=O)C[C@H](Cc1ccccc1)NC(=O)[C@@H]1CCC=CCC[C@H](NC(=O)CC(C)C)C(=O)N[C@@H]([C@@H](C)O)C(=O)N[C@@H](Cc2c[nH]cn2)C(=O)N[C@@H](C(c2ccccc2)c2ccccc2)C(=O)N2CCC[C@H]2C(=O)N[C@@H](C)C(=O)N[C@@H](CC(C)(C)C)C(=O)N1)C(=O)N[C@H](CCCCN)C(N)=O [Compd 63] (Isovaleryl-[Hag]TH[Dip]PA[tBuAla][Hag][β3hF]K([Ahx-Palmitoyl])[dK]-NH2; staple 1-8) | 1 to 10 nM | 1 to 10 nM |
| CCCCCCCCCCCCCCCC(=O)NCCCCCC(=O)NCCCC[C@H](NC(=O)C[C@H](Cc1ccccc1)NC(=O)[C@@H]1CCC=CC[C@H](NC(=O)CC(C)C)C(=O)N[C@@H]([C@@H](C)O)C(=O)N[C@@H](Cc2c[nH]cn2)C(=O)N[C@@H](C(c2ccccc2)c2ccccc2)C(=O)N2CCC[C@H]2C(=O)N[C@@H](C)C(=O)N[C@@H]([C@@H](C)CC)C(=O)N1)C(=O)N[C@H](CCCCN)C(N)=O [Compd 27] | 10 to 100 nM | 10 to 100 nM |
| CCCCCCCCCCCCCCCC(=O)NCCCCCC(=O)NCCCC[C@H](NC(=O)C[C@H](Cc1ccccc1)NC(=O)[C@@H]1CCC=CCC[C@H](NC(=O)[C@@H]2CCCN2C(=O)[C@@H](NC(=O)[C@H](Cc2c[nH]cn2)NC(=O)[C@@H](NC(=O)[C@H](CCC(=O)O)NC(=O)CC(C)C)[C@@H](C)O)C(c2ccccc2)c2ccccc2)C(=O)N[C@@H]([C@@H](C)CC)C(=O)N1)C(=O)N[C@H](CCCCN)C(N)=O [Compd 6] (Isovaleryl-ETH[Dip]P[Hag]I[Hag][β3hF]K([Ahx-Palmitoyl])[dK]-NH2; staple 6-8) | 1 to 10 nM | 10 to 100 nM |
| CCCCCCCCCCCCCCCC(=O)NCCCCCC(=O)NCCCC[C@@H]1NC(=O)[C@H](C)NC(=O)[C@@H]2CCCN2C(=O)[C@H](C(c2ccccc2)c2ccccc2)NC(=O)[C@H](Cc2c[nH]cn2)NC(=O)[C@H]([C@@H](C)O)NC(=O)[C@@H](NC(=O)CC(C)C)CCC=CCC[C@@H](C(=O)N[C@H](CC(N)=O)Cc2ccccc2)NC1=O [Compd 25] (Isovaleryl-[Hag]TH[Dip]PAK([Ahx-Palmitoyl])[Hag][β3hF]-NH2; staple 1-8) | 100 to 500 nM | 100 to 500 nM |
| CCCCCCCCCCCCCCCC(=O)NCCCCCC(=O)NCCCC[C@H](NC(=O)C[C@H](Cc1ccccc1)NC(=O)[C@@H]1CCC=CCC[C@H](NC(=O)CC(C)C)C(=O)N[C@@H]([C@@H](C)O)C(=O)N[C@@H](Cc2c[nH]cn2)C(=O)N[C@@H](C(c2ccccc2)c2ccccc2)C(=O)N2CCC[C@H]2C(=O)N[C@@H](C)C(=O)N[C@@H]([C@@H](C)CC)C(=O)N1)C(=O)N[C@@H](CC(C)(C)C)C(N)=O [Compd 65] | 1 to 10 nM | 10 to 100 nM |
| CCCCCCCCCCCCCCCC(=O)NCCCCCC(=O)NCCCC[C@H](NC(=O)C[C@H](Cc1ccccc1)NC(=O)[C@H]1CCCC=CCCC[C@H](NC(=O)CC(C)C)C(=O)N[C@@H]([C@@H](C)O)C(=O)N[C@@H](Cc2c[nH]cn2)C(=O)N[C@@H](C(c2ccccc2)c2ccccc2)C(=O)N2CCC[C@H]2C(=O)N[C@@H](C)C(=O)N[C@@H]([C@@H](C)CC)C(=O)N1)C(=O)N[C@H](CCCCN)C(N)=O [Compd 77] | 1 to 10 nM | 1 to 10 nM |
| CCCCCCCCCCCCCCCC(=O)NCCCCCC(=O)NCCCC[C@H](NC(=O)C[C@H](Cc1ccccc1)NC(=O)[C@@H]1CCC=CCC[C@H](NC(=O)CC(C)C)C(=O)N[C@@H]([C@@H](C)O)C(=O)N[C@@H](Cc2c[nH]cn2)C(=O)N[C@@H](C(c2ccccc2)c2ccccc2)C(=O)N2CCC[C@H]2C(=O)N[C@@H](C)C(=O)N[C@@H]([C@@H](C)CC)C(=O)N1)C(=O)N(C)[C@H](CCCCN)C(N)=O [Compd 56] | 10 to 100 nM | 1 to 10 nM |
| CCCCCCCCCCCCCCCC(=O)NCCCCCC(=O)NCCCC[C@H](NC(=O)C[C@H](Cc1ccccc1)NC(=O)[C@H]1CCCC=CCC[C@H](NC(=O)CC(C)C)C(=O)N[C@@H]([C@@H](C)O)C(=O)N[C@@H](Cc2c[nH]cn2)C(=O)N[C@@H](C(c2ccccc2)c2ccccc2)C(=O)N2CCC[C@H]2C(=O)N[C@@H](C)C(=O)N[C@@H]([C@@H](C)CC)C(=O)N1)C(=O)N[C@H](CCCCN)C(N)=O [Compd 75] | 10 to 100 nM | 10 to 100 nM |
